Data as given in US10144706B2 (BRISTOL-MYERS SQUIBB COMPANY, priority 2016, dated 2018).
pIC50: −log10 of the molar value.

Each molecule was assayed against T1, PD-1/PD-L1 interaction (PD-1-Ig / PD-L1-His) (Homo sapiens, UniProt Q9NZQ7) (assay: PD-1/PD-L1 Homogenous Time-Resolved Fluorescence (HTRF) binding assay). Settings: IC50 range class; PD-L1-His 10 nM, PD-1-Ig 20 nM; read-out: Range or IC50.
T1 construct: hPDL1(18-239)-TVMV-His; TVMV protease site linker (C); made in house; host or cells: HEK293T
T1 sequence (Q9NZQ7 with tags, fused parts or gaps): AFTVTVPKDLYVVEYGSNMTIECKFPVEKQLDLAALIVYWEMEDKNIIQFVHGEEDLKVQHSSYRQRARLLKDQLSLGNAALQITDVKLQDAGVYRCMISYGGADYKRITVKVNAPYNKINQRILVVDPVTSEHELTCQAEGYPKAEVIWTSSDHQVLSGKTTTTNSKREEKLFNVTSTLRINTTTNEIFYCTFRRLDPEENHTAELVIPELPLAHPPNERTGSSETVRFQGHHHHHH
How it was run: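 HTRF detection used 1 nM europium-cryptate anti-Ig and 20 nM APC anti-His. Compounds first saw 10 nM PD-L1-His for 15 min, and 20 nM PD-1-Ig was then added for another 15 min. Buffer was dPBS plus 0.1% BSA and 0.05% Tween-20. All concentrations are final.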

`Cc1c(COc2cc(OCc3cc(F)cc(F)c3)c(CN3CCCC[C@H]3C(=O)O)cc2Cl)cccc1-c1cccc(COc2cc(OCc3cc(F)cc(F)c3)c(CN3CCCC[C@H]3C(=O)O)cc2Cl)c1C` [Example 5006, (2S,2′S)-1,1′-(((((2,2′-dimethyl-[1,1′-biphenyl]-3,3′-diyl)bis(methylene))bis(oxy))bis(5-chloro-2-((3,5-difluorobenzyl)oxy)-4,1-phenylene))bis(methylene))bis(piperidine-2-carboxylic acid)] and `Cc1c(COc2cc(OCc3ccc(-n4cccn4)nc3)c(CN3CCCC[C@H]3C(=O)O)cc2Cl)cccc1-c1cccc(COc2cc(OCc3ccc(-n4cccn4)nc3)c(CN3CCCC[C@H]3C(=O)O)cc2Cl)c1C` [Example 5021, (2S,2′S)-1,1′-(((((2,2′-dimethyl-[1,1′-biphenyl]-3,3′-diyl)bis(methylene))bis(oxy))bis(2-((6-(1H-pyrazol-1-yl)pyridin-3-yl)methoxy)-5-chloro-4,1-phenylene))bis(methylene))bis(piperidine-2-carboxylic acid)] fall in the same range of pIC50: 7.70 to 10.40 for the first, 7.70 to 10.40 for the second.

First: Cc1c(COc2cc(OCc3cncc(C#N)c3)c(CO)cc2Cl)cccc1-c1cccc(COc2cc(OCc3cncc(C#N)c3)c(CNCC(O)CC(=O)O)cc2Cl)c1C (stereo not shown) [Example 50070]
Second: Cc1c(COc2cc(OCc3cncc(C#N)c3)c(CO)cc2Cl)cccc1-c1cccc(COc2cc(OCc3cncc(C#N)c3)c(CN[C@@H](CO)CC(=O)O)cc2Cl)c1C [Example 50310]
The pIC50 of the first is higher: 7.70 to 10.40 for the first, 7.05 to 7.70 for the second. The first is the more potent here.

First: N#Cc1cncc(COc2cc(OCc3cccc(-c4cccc(COc5cc(OCc6cncc(C#N)c6)c(C(=O)NCC6(CO)CC6)cc5Cl)c4Cl)c3Cl)c(Cl)cc2C(=O)NCC2(CO)CC2)c1 [Example 80160]
Second: N#Cc1cncc(COc2cc(OCc3cccc(-c4cccc(COc5cc(OCc6cncc(C#N)c6)c(C(=O)NC6CC6)cc5Cl)c4Cl)c3Cl)c(Cl)cc2C(=O)O)c1 [Example 90020]
The pIC50 of the first is lower: 5.00 to 6.00 for the first, 7.05 to 7.70 for the second. The second is the more potent here.

`Cc1cc(OCc2cccc(-c3cccc(COc4cc(OCc5cncc(C#N)c5)c(CN(C)[C@@H](CCO)C(=O)O)cc4Cl)c3C)c2C)c(Cl)cc1CN(C)[C@@H](CCO)C(=O)O` [Example 5505, N-(4-((3′-((4-((((S)-1-carboxy-3-hydroxypropyl)(methyl)amino)methyl)-2-chloro-5-((5-cyanopyridin-3-yl)methoxy)phenoxy)methyl)-2,2′-dimethyl-[1,1′-biphenyl]-3-yl)methoxy)-5-chloro-2-methylbenzyl)-N-methyl-L-homoserine] and `CCN(Cc1cc(Cl)c(OCc2cccc(-c3cccc(COc4cc(OCc5cncc(C#N)c5)c(CN(CC)C(CCO)C(=O)O)cc4Cl)c3C)c2C)cc1OCc1cncc(C#N)c1)C(CCO)C(=O)O` (stereo not shown) [Example 40800] fall in the same range of pIC50: 7.70 to 10.40 for the first, 7.70 to 10.40 for the second.

`Cc1c(COc2cc(OCc3cncc(C#N)c3)c(CNC[C@H](O)CO)cc2Cl)cccc1-c1cccc(COc2cc(OCc3cncc(C#N)c3)c(CNC[C@H](O)CO)cc2Cl)c1C` [Example 2127, 5,5′-((((((2,2′-dimethyl-[1,1′-biphenyl]-3,3′-diyl)bis(methylene))bis(oxy))bis(4-chloro-6-((((S)-2,3-dihydroxypropyl)amino)methyl)-3,1-phenylene))bis(oxy))bis(methylene))dinicotinonitrile] and `Cc1c(COc2cc(OCc3cncc(C#N)c3)c(CN[C@](C)(CO)C(=O)O)cc2Cl)cccc1-c1cccc(COc2cc(OCc3cncc(C#N)c3)c(CN[C@](C)(CO)C(=O)O)cc2Cl)c1C` [Example 2121, (2R,2′R)-2,2′-((((((2,2′-dimethyl-[1,1′-biphenyl]-3,3′-diyl)bis(methylene))bis(oxy))bis(5-chloro-2-((5-cyanopyridin-3-yl)methoxy)-4,1-phenylene))bis(methylene))bis(azanediyl))bis(3-hydroxy-2-methylpropanoic acid)] fall in the same range of pIC50: 7.70 to 10.40 for the first, 7.70 to 10.40 for the second.

`C[C@](CO)(NCc1cc(Cl)c(OCc2cccc(-c3cccc(COc4cc(OCc5cncc(C#N)c5)c(CN[C@@](C)(CO)C(=O)O)cc4Cl)c3)c2)cc1OCc1cncc(C#N)c1)C(=O)O` [Example 40040] and `CC(CO)(NCc1cc(Cl)c(OCc2cccc(-c3cccc(COc4cc(OCc5cncc(C#N)c5)c(CNC(C)(CO)C(=O)O)cc4Cl)c3Cl)c2Cl)cc1OCc1cncc(C#N)c1)C(=O)O` (stereo not shown) [Example 41200] fall in the same range of pIC50: 7.70 to 10.40 for the first, 7.70 to 10.40 for the second.

`Cc1c(OCCCNC[C@H](O)CO)cccc1-c1cccc(OCCCN(CCc2cccnc2)C[C@H](O)CO)c1C` [Example 2103, (S)-3-((3-((3′-(3-(((S)-2,3-dihydroxypropyl)(2-(pyridin-3-yl)ethyl)amino)propoxy)-2,2′-dimethyl-[1,1′-biphenyl]-3-yl)oxy)propyl)amino)propane-1,2-diol] and `Cc1c(OCCCN(C)C[C@H](O)CO)cccc1-c1cccc(OCCCN(C)C[C@H](O)CO)c1C` [Example 2031, (2S,2′S)-3,3′-((((2,2′-dimethyl-[1,1′-biphenyl]-3,3′-diyl)bis(oxy))bis(propane-3,1-diyl))bis(methylazanediyl))bis(propane-1,2-diol)] fall in the same range of pIC50: 7.70 to 10.40 for the first, 7.70 to 10.40 for the second.

First: Cc1cc(OCc2cccc(-c3cccc(COc4cc(C)c(CNC(CO)CO)cc4C)c3C)c2C)c(C)cc1CNC(CO)CO [Example 5004, 2,2′-((((((2,2′-dimethyl-[1,1′-biphenyl]-3,3′-diyl)bis(methylene))bis(oxy))bis(2,5-dimethyl-4,1-phenylene))bis(methylene))bis(azanediyl))bis(propane-1,3-diol)]
Second: Cc1c(COc2cc(OCc3cc(F)cc(F)c3)c(CN(C)C(CO)CO)cc2Cl)cccc1-c1cccc(COc2cc(OCc3cc(F)cc(F)c3)c(CN(C)C(CO)CO)cc2Cl)c1C [Example 5005, 2,2′-((((((2,2′-dimethyl-[1,1′-biphenyl]-3,3′-diyl)bis(methylene))bis(oxy))bis(5-chloro-2-((3,5-difluorobenzyl)oxy)-4,1-phenylene))bis(methylene))bis(methylazanediyl))bis(propane-1,3-diol)]
The pIC50 of the first is higher: 7.70 to 10.40 for the first, 6.00 to 7.05 for the second. The first is the more potent here.

`COC[C@H](NCc1cc(Cl)c(OCc2cccc(-c3cccc(COc4cc(OCc5cncc(C#N)c5)c(CN[C@@H](COC)C(=O)O)cc4Cl)c3C)c2C)cc1OCc1cncc(C#N)c1)C(=O)O` [Example 40340] and `Cc1c(COc2cc(OCc3cncc(C#N)c3)c(CNC(C)CC(=O)O)cc2Cl)cccc1-c1cccc(COc2cc(OCc3cncc(C#N)c3)c(CNC(C)CC(=O)O)cc2Cl)c1C` (stereo not shown) [Example 40400] fall in the same range of pIC50: 7.70 to 10.40 for the first, 7.70 to 10.40 for the second.

`Cc1c(COc2cc(OCc3cc(F)cc(F)c3)c(CNC(C)(CO)CO)cc2Cl)cccc1-c1cccc(COc2cc(OCc3cc(F)cc(F)c3)c(CNC(C)(CO)CO)cc2Cl)c1C` [Example 5007, 2,2′-((((((2,2′-dimethyl-[1,1′-biphenyl]-3,3′-diyl)bis(methylene))bis(oxy))bis(5-chloro-2-((3,5-difluorobenzyl)oxy)-4,1-phenylene))bis(methylene))bis(azanediyl))bis(2-methylpropane-1,3-diol)] and `CC(=O)c1cc(Cl)c(OCc2cccc(-c3cccc(COc4cc(OCc5cncc(C#N)c5)c(CNC(C)(CO)C(=O)O)cc4Cl)c3Cl)c2Cl)cc1OCc1cncc(C#N)c1` (stereo not shown) [Example 60060] fall in the same range of pIC50: 7.70 to 10.40 for the first, 7.70 to 10.40 for the second.

First: Cc1c(OCCCN2CC[C@@H](O)C2)cccc1-c1ccc2c(c1)OC(CCN1CC[C@@H](O)C1)CO2 (single isomer, unassigned) [Example 3031]
Second: Cc1c(OCCCN2CC[C@@H](O)C2)cccc1-c1cccc(OCCCN2CCO[C@@H](CO)C2)c1C [Example 2092, (R)-1-(3-((3′-(3-((R)-2-(hydroxymethyl)morpholino)propoxy)-2,2′-dimethyl-[1,1′-biphenyl]-3-yl)oxy)propyl)pyrrolidin-3-ol]
The pIC50 of the first is higher: 7.70 to 10.40 for the first, 7.05 to 7.70 for the second. The first is the more potent here.

Compared with `N#Cc1cncc(COc2cc(OCc3cccc(-c4cccc(COc5cc(OCc6cncc(C#N)c6)c(C(=O)N6CCC(=O)CC6)cc5Cl)c4Cl)c3Cl)c(Cl)cc2C(=O)N2CCC(=O)CC2)c1` [Example 80010], `Cc1c(COc2cc(OCc3cncc(C#N)c3)c(C(=O)N3CCOCC3)cc2Cl)cccc1-c1cccc(COc2cc(OCc3cncc(C#N)c3)c(C(=O)N3CCOCC3)cc2Cl)c1C` [Example 80100] is higher in pIC50: 7.05 to 7.70 for the first, 7.70 to 10.40 for the second. The second is the more potent here.

First: Cc1c(OCCCN2CCC[C@H](C(=O)O)C2)cccc1-c1cccc(OCCCN2CCC[C@H](C(=O)O)C2)c1C [Example 2082, (3S,3′S)-1,1′-(((2,2′-dimethyl-[1,1′-biphenyl]-3,3′-diyl)bis(oxy))bis(propane-3,1-diyl))bis(piperidine-3-carboxylic acid)]
Second: Cc1c(OCCCNCC(C)(C)CO)cccc1-c1cccc(OCCCN2CC[C@@H](O)C2)c1C [Example 2046, (R)-1-(3-((3′-(3-((3-hydroxy-2,2-dimethylpropyl)amino)propoxy)-2,2′-dimethyl-[1,1′-biphenyl]-3-yl)oxy)propyl)pyrrolidin-3-ol]
The pIC50 of the first is lower: 6.00 to 7.05 for the first, 7.05 to 7.70 for the second. The second is the more potent here.

For `N#Cc1cncc(COc2cc(OCc3cccc(-c4cccc(COc5cc(OCc6cncc(C#N)c6)c(CNC(CCO)C(=O)O)cc5Cl)c4Cl)c3Cl)c(Cl)cc2CNC(CCO)C(=O)O)c1` (stereo not shown) [Example 40170], the pIC50 was 7.70 to 10.40.

Same assay, conditions: numeric IC50; PD-L1-His 10 nM, PD-1-Ig 20 nM; read-out: Range or IC50

`Cc1c(OCCCN(Cc2cncc(C#N)c2)C[C@H](O)CO)cccc1-c1cccc(OCCCN(Cc2cncc(C#N)c2)C[C@H](O)CO)c1C` [Example 2099, 5,5′-(((((2,2′-dimethyl-[1,1′-biphenyl]-3,3′-diyl)bis(oxy))bis(propane-3,1-diyl))bis(((S)-2,3-dihydroxypropyl)azanediyl))bis(methylene))dinicotinonitrile] gave a pIC50 of 5.90.
